Measurements published in ChEMBL document CHEMBL5543151, “Rational Design of a Novel Class of Human ClpP Agonists through a Ring-Opening Strategy with Enhanced Antileukemia Activity” (J Med Chem, 2024).
pEC50, pIC50: −log10 of the molar value.

Assays:
[1] = test system: MV4-11; test: Anti-leukemia activity against human MV4-11 cells assessed as decrease in cell proliferation incubated for 48 hrs by CCK-8 assay; type: functional, cell-based; details: MV4-11, 48 h
[2] = test system: U-937; test: Anti-leukemia activity against human U-937 cells assessed as decrease in cell proliferation incubated for 72 hrs by CCK-8 assay; type: functional, cell-based; details: U-937, 72 h
[3] = test system: MOLM-13; test: Anti-leukemia activity against human MOLM-13 cells assessed as decrease in cell proliferation incubated for 72 hrs by CCK-8 assay; type: functional, cell-based; details: MOLM-13, 72 h
[4] = test system: MV4-11; test: Potency index, ratio of ONC201 IC50 to test compound IC50 for anti-leukemia activity against human MV4-11 cells assessed as decrease in cell proliferation incubated for 72 hrs by CCK-8 assay; type: functional
[5] = test system: MV4-11; test: Anti-leukemia activity against human MV4-11 cells assessed as decrease in cell proliferation incubated for 72 hrs by CCK-8 assay; type: functional, cell-based; details: MV4-11, 72 h
[6] = test system: MV4-11; test: Anti-leukemia activity against human MV4-11 cells assessed as decrease in cell proliferation incubated for 24 hrs by CCK-8 assay; type: functional, cell-based; details: MV4-11, 24 h
[7] = test system: K562; test: Anti-leukemia activity against human K562 cells assessed as decrease in cell proliferation incubated for 72 hrs by CCK-8 assay; type: functional, cell-based; details: K562, 72 h
[8] = test system: OCI-AML2; test: Anti-leukemia activity against human OCI-AML2 cells assessed as decrease in cell proliferation incubated for 72 hrs by CCK-8 assay; type: functional, cell-based; details: OCI-AML2, 72 h
[9] = target: T1, ATP-dependent Clp protease proteolytic subunit, mitochondrial (Homo sapiens, UniProt Q16740); test: Binding affinity to human Casein lysing protease P (HsClpP) assessed as change in melting temperature measured after 2 hrs differential scanning fluorimetry (DSF) assay
[10] = test system: HL-60; test: Anti-leukemia activity against human HL-60 cells assessed as decrease in cell proliferation incubated for 72 hrs by CCK-8 assay; type: functional, cell-based; details: HL-60, 72 h
[11] = target: T1, ATP-dependent Clp protease proteolytic subunit, mitochondrial; test: Agonist activity at human Casein lysing protease P (HsClpP) assessed as proteolytic activity by measuring alpha-casein hydrolysis measured after 2 hrs incubation by fluorescence assay
[12] = test system: MV4-11; test: Induction of apoptosis in human MV4-11 cells assessed as increase in apoptotic (annexin V-positive) cell proportions by measuring apoptotic rate at 120 nM measured after 48 hrs by Annexin V-647/P1 apoptosis detection assay relative to control; type: functional
[13] = test system: Kasumi 1; test: Anti-leukemia activity against human Kasumi 1 cells assessed as decrease in cell proliferation incubated for 72 hrs by CCK-8 assay; type: functional, cell-based; details: Kasumi 1, 72 h
[14] = test system: THP-1; test: Anti-leukemia activity against human THP-1 cells assessed as decrease in cell proliferation incubated for 72 hrs by CCK-8 assay; type: functional, cell-based; details: THP-1, 72 h

T1 sequence (Q16740 whole entry): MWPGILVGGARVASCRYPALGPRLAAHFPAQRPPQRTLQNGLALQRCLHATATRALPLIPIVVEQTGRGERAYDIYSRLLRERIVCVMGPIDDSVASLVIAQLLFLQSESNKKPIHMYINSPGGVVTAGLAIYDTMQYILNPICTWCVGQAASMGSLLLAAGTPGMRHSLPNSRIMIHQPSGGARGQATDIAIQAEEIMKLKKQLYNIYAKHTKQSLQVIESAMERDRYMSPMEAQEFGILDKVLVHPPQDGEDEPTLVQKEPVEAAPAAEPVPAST

`N#Cc1cccc(CN2CCc3[nH]c(NCc4ccc(F)cc4)nc(=O)c3C2)c1` was tested, and the pEC50 [1] was 7.11, the pIC50 [2] was 7.11 and the pIC50 [3] was 7.52. For the same molecule, the “Ratio IC50” value [4] was 20, the pIC50 [5] was 7.52 and the pEC50 [6] was 5.28. The pIC50 [7] was 6.88, the pIC50 [8] was 7.41 and the pEC50 [9] was 5.86. For the same molecule, the pIC50 [10] was 7.39, the pEC50 [11] was 6.01 and the Activity [12] was ~80%. For the same molecule, the pIC50 [13] was 7.39 and the pIC50 [14] was 7.10.
